Experimental data: PMC5937083, “Physicochemical, Stress Degradation Evaluation and Pharmacokinetic Study of AZGH101; a New Synthesized COX2 Inhibitor after I.V. and Oral Administration in Male and Female Rats” (Iranian Journal of Pharmaceutical Research : IJPR, 2018)
In brackets after ≈: the same amount, converted by molar mass. Like-named read-outs stand apart in the source and are kept apart here.

Key:
[1] = Aqueous solubility (OECD Guideline No. 105); format: physicochemical; settings: water; 3 replications
Experimental: (§1) Melting point was determined with an Electrothermal 9200 apparatus (UK). Aqueous solubility and octanol/water partition coefficient of the synthesized derivative was determined according to Organisation for Economic Co-operation and Development (OECD) Guideline for Testing of Chemicals, No.105, and No. 107 respectively ([11]-[13]).

[2] = Octanol/water partition coefficient, log P (OECD Guideline No. 107); format: physicochemical; settings: n = 3, read-out: log P (logarithm of octanol/water partition coefficient)
Experimental: as §1

[3] = Forced degradation stability study (ICH guideline for new drug substance); format: physicochemical; settings: for Forced tests results, Mean ±SD: fraction recovered intact, 3 replications
Experimental: The stability study was conducted according to forced degradation protocol ICH guideline for new drug substance ([14]-[16]). In brief, the stability of AZGH101 at acidic, basic, and neutral medium was evaluated. Moreover, the effect of oxidative condition (H2O2, 3 and 30%), thermal degradation at solid state, and photolysis on the stability of AZGH101 was examined.

[4] = Pharmacokinetic study after oral and intravenous administration to Wistar rats; format: in vivo; settings: for k el: Wistar, read-out: β (elimination rate constant) (converted); for bioavailability: oral 20 mg/kg vs intravenous 10 mg/kg; for half-life: read-out: t1/2 β (converted)
Experimental: Male and female Wistar rats weighting 250 ± 10 g were used. They were kept at 25 ± 1 °C temperature and controlled humidity with 12 h light/dark cycle. The animals were fasted overnight before the experiment and had free access to water. The study protocol was approved by the local committee for animal experiments of Shahid Beheshti University of Medical Sciences (Tehran, Iran).
Male or female rats were chosen randomly (6 rats/group) and assigned to receive […] solution in normal saline for intravenous (IV) via the tail vein or oral administration via oral gavages. The administered doses in both sexes for intravenous (IV) and oral studies were 10 mg/kg and 20 mg/kg, respectively. Blood samples were collected from the tail vein immediately prior to administration (blank sample) and at 0.08, 0.25, 0.5, 1, 2, 4, 6, 8, 10, 21 and 22 h after administration into heparinized micro-tubes. Blood samples were centrifuged at 1000 g for 10 min and the separated plasmas were kept at –20 °C until analysis.
Pharmacokinetic analyses were performed using WinNonlin software (Pharsight Corporation, Mountain View, USA, Version 3.2) and two-compartmental model was chosen. The following pharmacokinetic parameters were estimated: terminal elimination half-life (t1/2), area under the plasma concentration versus time curve from zero to the infinity (AUC 0-∞), distribution and elimination rate constants (α, β), volume of distribution (Vd), and total body clearance (CL). The peak plasma concentration (Cmax) and the time to reach Cmax (Tmax) for oral dose were obtained directly from the observed individual plasma concentration-time data.

COX-2 = settings: cited from earlier work
[5] = 'It was reported'; cited from earlier work
[6] = cited from earlier work
[7] = oral 20 mg/kg, female Wistar rats
[8] = oral 20 mg/kg, male Wistar rats
[9] = rat, plasma, intravenous 10 mg/kg, female Wistar rats
[10] = rat, plasma, intravenous 10 mg/kg, male Wistar rats
[11] = rat, plasma, oral 20 mg/kg, female Wistar rats
[12] = rat, plasma, oral 20 mg/kg, male Wistar rats

## CS(=O)(=O)c1ccc(-c2cc(C(=O)O)c3cc(C(=O)c4ccccc4)ccc3n2)cc1 [AZGH101, 6-benzoyl-2-(4-(methylsulfonyl)phenyl)quinoline-4-carboxylic acid]
[1]
  solubility: 1.4 ± 0.17 µg/mL (≈ 3.24 µM)
[2]
  logP: 3.82 ± 0.001
[3]; Hydrolysis (Acid)
  Forced tests results, Mean ±SD: 0.95±0.02
[3]; Hydrolysis (Base)
  Forced tests results, Mean ±SD: 0.92±0.03
[3]; Hydrolysis (Buffer pH=7)
  Forced tests results, Mean ±SD: 0.94±0.02
[3]; Oxidative stress (H2O2-3%)
  Forced tests results, Mean ±SD: 0.93±0.04
[3]; Oxidative stress (H2O2-30%)
  Forced tests results, Mean ±SD: 0.91±0.02
[3]; Photodegradation (Acid)
  Forced tests results, Mean ±SD: 0.94±0.02
[3]; Photodegradation (Base)
  Forced tests results, Mean ±SD: 0.94±0.01
[3]; Photodegradation (Buffer pH=7)
  Forced tests results, Mean ±SD: 0.95±0.02
[3]; Thermal Degradation (solid phase)
  Forced tests results, Mean ±SD: 0.96±0.03
[3]; in all of the examined stress conditions
  AZGH101 recovered intact: more than 90%
[4]; female, rat, plasma, iv, 10 mg/kg, intravenous 10 mg/kg, female Wistar rats
  k el: 9.72e-05 s⁻¹
[4]; female, rat, plasma, po, 20 mg/kg, oral 20 mg/kg, female Wistar rats
  k el: 3.61e-05 s⁻¹
[4]; intravenous 10 mg/kg, female Wistar rats
  α (distribution rate constant): 3.70 ± 0.80 h⁻¹
[4]; intravenous 10 mg/kg, female Wistar rats, 10 mg/kg
  β (elimination rate constant): 0.355 ± 0.006 h⁻¹
[4]; intravenous 10 mg/kg, male Wistar rats
  α (distribution rate constant): 4.25 ± 0.99 h⁻¹
[4]; intravenous 10 mg/kg, male Wistar rats, 10 mg/kg
  β (elimination rate constant): 0.349 ± 0.008 h⁻¹
[4]; male, rat, plasma, iv, 10 mg/kg, intravenous 10 mg/kg, male Wistar rats
  k el: 9.72e-05 s⁻¹
[4]; male, rat, plasma, po, 20 mg/kg, oral 20 mg/kg, male Wistar rats
  k el: 3.89e-05 s⁻¹
[4]; [7]
  Cl: 31.73 ± 3.31 mL/h
  Ka: 1.00 ± 0.10 h⁻¹
  Vd: 245.87 ± 44.86 mL
  α (distribution rate constant): 3.86 ± 2.99 h⁻¹
[4]; [8]
  Cl: 32.45 ± 1.65 mL/h
  Ka: 0.92 ± 0.18 h⁻¹
  Vd: 233.55 ± 27.82 mL
  α (distribution rate constant): 3.34 ± 1.26 h⁻¹
[4]; rat, plasma, Wistar rats, both sexes, read-out: oral absolute bioavailability
  bioavailability: ~27%
[4]; [9]
  AUC(0-inf): 79400 ± 5810 ng·h/mL
  C0: 86.8 ± 11.3 µg/mL
  clearance: 0.527 mL/min
  half-life: 1.97 ± 0.06 h
[4]; rat, plasma, intravenous 10 mg/kg, female Wistar rats, read-out: Vd
  Vd: 89.3 ± 7.68 mL
[4]; [10]
  AUC(0-inf): 77100 ± 3620 ng·h/mL
  C0: 92.3 ± 11 µg/mL
  clearance: 0.541 mL/min
  half-life: 2.01 ± 0.04 h
[4]; rat, plasma, intravenous 10 mg/kg, male Wistar rats, read-out: Vd
  Vd: 94.1 ± 6.42 mL
[4]; rat, plasma, female Wistar rats, read-out: F (oral absolute bioavailability)
  bioavailability: 27.73 ± 0.01%
[4]; rat, plasma, male Wistar rats, read-out: F (oral absolute bioavailability)
  bioavailability: 26.02 ± 0.03%
[4]; [11]
  AUC(0-inf): 41300 ± 4200 ng·h/mL
  Cmax: 21.8 ± 1.33 µg/mL
  Tmax: 0.5 h
  half-life: 5.34 ± 0.48 h
[4]; [12]
  AUC(0-inf): 42800 ± 2240 ng·h/mL
  Cmax: 20.4 ± 1.49 µg/mL
  Tmax: 0.5 h
  half-life: 4.99 ± 0.52 h
COX-2
  IC50: 77 nM
  selectivity index (COX-1 IC50 / COX-2 IC50): less than 500
COX-2; relative to ketoprofen
  tendency against inhibition of COX-2, times greater than ketoprofen: about 10 times

## Cc1ccc(-c2cc(C(F)(F)F)nn2-c2ccc(S(N)(=O)=O)cc2)cc1 [celecoxib]
[5]
  solubility in water: 3.3 µg/mL (≈ 8.65 µM)

## CC(C(=O)O)c1cccc(C(=O)c2ccccc2)c1 (stereo not drawn) [ketoprofen]
[6]
  log P: 3.1
